Results from EPA's ToxValDB 9.5.
Values joined by “and” are separate entries in the source; they are usually repeats but may differ in a detail not shown here. Equal values may be shown once. One block for each compound: values may come before it.

Key:
[1] = system: Canidae; details: oral, Dog Other
[2] = system: Rattus norvegicus
[3] = system: Rattus norvegicus; details: for LOEL / NOEL: Hershberger; for LEL: uterotrophic, Active
[4] = system: Rattus norvegicus; details: developmental; oral; gavage; M; Sprague-Dawley; generation: F1; F1: Testosterone (Testes)
[5] = system: Rattus norvegicus; details: oral; for NOEL: gavage, M/F
[6] = system: Rattus norvegicus; details: chronic, duration: 2 years, oral, diet, M/F
[7] = chronic, duration: 1 years, diet, M/F, decreased prostate weight + Increased RBC Heinz bodies
[8] = subchronic, duration: 90 days, diet, M/F, sedation and tonoclonic spasms reduced food intake and body weight hematological effects
[9] = duration: 5 days, oral, gavage, Sprague-Dawley, active + Androgenic + androgenic + advanced age of PPS, histopathology effects on reproductive tissues
[10] = duration: 3 days, injection, subcutaneous
[11] = duration: 10 days, injection, subcutaneous, Wistar, active + Androgenic + androgenic
[12] = duration: 10 days, oral, gavage, Sprague-Dawley, active + Antiandrogenic + anti-androgenic
[13] = chronic, duration: 2 years, diet, M/F, liver toxicity
[14] = chronic, duration: 1 years, diet, M/F, tremors
[15] = chronic, duration: 1 years, diet, M/F, hypertrophy of adrenal cortex (both sexes) hematological effects (males)
[16] = chronic, duration: 26 weeks, diet, M/F, increased organ weight
[17] = subchronic, M, increased sgot and sgpt levels
[18] = chronic, duration: 2 years, diet, M/F, liver and kidney effects, reduced body weight, mortality
[19] = duration: 10 days, oral, gavage, Sprague-Dawley, inactive + Negative + Negative + neither + negative
[20] = chronic, duration: 1 years, diet, M/F, chronic pneumonitis
[21] = chronic, duration: 106 weeks, diet, M/F, liver and kidney degeneration and bone marrow atrophy
[22] = reduced body weight gain, erythrocyte count and hemoglobin level
[23] = chronic, duration: 6 months, diet, M/F, Organ weight changes (adrenal and kidney)

Structure (SMILES): CC(C)NC(=O)N1CC(=O)N(c2cc(Cl)cc(Cl)c2)C1=O
LEL [1, 7]: 15 mg/kg-day
NOEL [1, 7]: 4.2 mg/kg-day

Structure (SMILES): C[N+]1(C)CCCCC1.[Cl-] [1,1-Dimethylpiperidinium chloride]
LEL [1, 8]: 75 mg/kg-day
NOEL [1, 8]: 25 mg/kg-day

Structure (SMILES): C1=CCC=C1 [1,3-Cyclopentadiene]
NOEL ([2]; chronic, duration: 194 days, inhalation, intermittent, Kidney: Lesions + Liver: Lesions): 87.3 mg/kg-day

Structure (SMILES): N#CSCSc1nc2ccccc2s1 [2-(Thiocyanomethylthio)benzothiazole]
NOEL ([2]; subchronic, oral, diet, Stomach: Lesions): 25 mg/kg-day

Structure (SMILES): O=C=Nc1ccc(Cc2ccc(N=C=O)cc2)cc1 [4,4'-Diphenylmethane diisocyanate]
NOAEL ([2]; chronic, duration: 24 months, inhalation, intermittent, Nasal cavity: Lesions): 0.2 mg/m3

Structure (SMILES): C[C@]12CCC(=O)C=C1CC[C@@H]1[C@@H]2CC[C@@]2(C)[C@H]1CC[C@]2(C)O [17-Methyltestosterone]
LOEL [3, 9]: 80 mg/kg-day and 100 mg/kg-day
NOEL [3, 9]: 20 mg/kg-day
LOEL ([3]; duration: 7 days, injection, subcutaneous, Sprague-Dawley, androgenic): 0.16 mg/kg-day
LEL [3, 10]: 10 mg/kg-day
LEL ([3]; duration: 4 days, injection, subcutaneous): 0.5 mg/kg-day
LEL ([3]; duration: 14 days, oral): 3 mg

Structure (SMILES): CC[C@@H](C(C)C)[C@@H](O)[C@H](O)[C@@H](C)[C@H]1CC[C@H]2[C@@H]3COC(=O)[C@H]4C[C@H](O)[C@H](O)C[C@]4(C)[C@H]3CC[C@]12C [28-Homobrassinolide]
LOEL [3, 11]: 4 mg/kg-day
NOEL [3, 11]: 0.4 mg/kg-day

LEL [3, 10]: 0.00016 mg/day
Structure (SMILES): CC/C(=C(\c1ccc(O)cc1)c1ccc(OCCN(C)C)cc1)c1ccccc1 [(Z)-4-Hydroxytamoxifen]

Structure (SMILES): [O]=[Sb][O][Sb](=[O])=[O] [Antimony oxide (Sb2O4)]
LOAEL ([2]; chronic, oral, drinking water, Blood: Altered chemistries + Whole body: Increased mortality): 0.44 mg/kg-day

LEL [3, 10]: 1 mg/kg-day
Structure (SMILES): c1ccc2cc3c(ccc4ccccc43)cc2c1 [Benz(a)anthracene]

Structure (SMILES): FB(F)F [Boron trifluoride]
NOAEL ([2]; subchronic, duration: 13 weeks, inhalation, intermittent, Kidney: Necrosis): 6 mg/m3

Structure (SMILES): CC(C)CCCCCCOC(=O)c1ccccc1C(=O)OCCCCCCC(C)C [Diisononyl phthalate]
NOEL [4]: 750 mg/kg-day
LOEL [3, 12]: 500 mg/kg-day
NOEL [3, 12]: 100 mg/kg-day

Structure (SMILES): CN(C)C(=O)C(c1ccccc1)c1ccccc1 [Diphenamid]
LEL [1, 13]: 10 mg/kg-day
NOEL [1, 13]: 3 mg/kg-day

Structure (SMILES): CC1(C)C(C(=O)OC(C#N)c2cccc(Oc3ccccc3)c2)C1(C)C (stereo unspecified) [Fenpropathrin]
LOAEL [1, 14]: 6.25 mg/kg-day
NOAEL [1, 14]: 2.5 mg/kg-day

Structure (SMILES): COP(=S)(OC)Oc1ccc(SC)c(C)c1 [Fenthion]
LOEL ([3]; duration: 7 days, oral, gavage, Fischer 344, active + Antiandrogenic + anti-androgenic): 25 mg/kg-day

Structure (SMILES): C[C@H]1[C@H](c2ccc(Cl)cc2)SC(=O)N1C(=O)NC1CCCCC1 [Hexythiazox]
LEL [1, 15]: 12.5 mg/kg-day
NOEL [1, 15]: 2.5 mg/kg-day

Structure (SMILES): CC1(C)CN=C(NN=C(C=Cc2ccc(C(F)(F)F)cc2)C=Cc2ccc(C(F)(F)F)cc2)NC1 [Hydramethylnon]
LEL [1, 16]: 1 mg/kg-day
NOEL [1, 16]: 0.33 mg/kg-day

Structure (SMILES): C=C(C)C#N [Methacrylonitrile]
LOAEL [1, 17]: 24 mg/m3
NOAEL [1, 17]: 9 mg/m3
NOEL ([5]; subchronic, Fischer 344, Deaths + Clinical Observation: Lethargy Lacrimation, tremors Convulsions Ataxia Abnormalbreathing + Body Weight Changes: decrease + …): < 7.5 mg/kg-day

Structure (SMILES): CSc1nnc(C(C)(C)C)c(=O)n1N [Metribuzin]
LEL [1, 18]: 37.5 mg/kg-day
NOEL [1, 18]: 2.5 mg/kg-day
NOEL [3, 19]: 120 mg/kg-day

Structure (SMILES): CCCCC(C#N)(Cn1cncn1)c1ccc(Cl)cc1 (stereo unspecified) [Myclobutanil]
LEL ([6]; testicular atrophy): 9.84 mg/kg-day
NOEL ([6]; testicular atrophy): 2.49 mg/kg-day
NOEL ([3]; duration: 10 days, oral, gavage, Sprague-Dawley, inactive + Negative + Negative + anti-androgenic + decrease in AST wt at 200 and serum testosterone 49% / increase in PPS at 400 and serum …): 50 mg/kg-day

Structure (SMILES): C[n+]1ccc(-c2cc[n+](C)cc2)cc1 [Paraquat]
LEL [1, 20]: 0.93 mg/kg-day
NOEL [1, 20]: 0.45 mg/kg-day

Structure (SMILES): CCCCN(CC)C(=O)SCCC [Pebulate]
NOEL ([2]; subchronic, oral, diet, Blood: Increased clotting time): 5 mg/kg-day

Structure (SMILES): Brc1cc(-c2ccc(Br)c(Br)c2Br)cc(Br)c1Br [Polybrominated biphenyls (PBB)]
LOAEL ([2]; chronic, duration: 25 weeks, oral, gavage, Liver: Increased weight + Liver: Lesions): 0.07 mg/kg-day

Structure (SMILES): CSc1nc(NC(C)C)nc(NC(C)C)n1 [Prometryn]
LEL [1, 21]: 37.5 mg/kg-day
NOEL [1, 21]: 3.75 mg/kg-day

LEL [3, 10]: 65 mg/kg-day
Structure (SMILES): CCCOC(=O)c1ccc(O)cc1 [Propylparaben]

Structure (SMILES): CC(C)(C)C(=O)C(Oc1ccc(Cl)cc1)n1cncn1 (stereo unspecified) [Triadimefon]
LEL [6, 22]: 25 mg/kg-day
NOEL [6, 22]: 2.5 mg/kg-day
NOEL ([3]; duration: 10 days, oral, gavage, Sprague-Dawley, inactive + Negative + Negative + both + decreased AGD, delayed PPS, decreased AST wt / inhibits CYP17 / increases liver wt 37% and …): 25 mg/kg-day

Structure (SMILES): CCC[CH2][Sn]([Cl])([CH2]CCC)[CH2]CCC [Tributyltin chloride]
NOAEL ([5]; short-term, duration: 28 days, diet, M, Wistar, Body Weight Changes: Weight gain decrease + Food Consumption: decrease + Absolute Organ Weight: Thymus decrease + Relative Organ Weight: …): 5 ppm
LEL ([3]; duration: 0 days, oral, diet): 125 ppm

Structure (SMILES): C=CC1(C)OC(=O)N(c2cc(Cl)cc(Cl)c2)C1=O (stereo unspecified) [Vinclozolin]
LEL [1, 23]: 7.5 mg/kg-day
NOEL [1, 23]: 2.5 mg/kg-day
NOEL ([5]; subchronic, Sprague-Dawley, Body Weight Changes: decrease + Blood Chemistry: BUN increase, Cho increase, Glu increase, TSH increase, T4 decrease, , LH increase, , …): < 3.12 mg/kg-day
NOEL ([3]; duration: 7 days, injection, subcutaneous, Wistar, Neither + significant delay in PPS and AST / epididymal wt reduced at 30 mg/kg / serum LH decreased at 10 mg/kg / increase in …): 30 mg/kg-day
NOEL ([3]; duration: 10 days, oral, gavage, Wistar, active + Antiandrogenic + anti-androgenic + ISR significant delay in PPS at 10 mg/kg / Monossori et al. significant delay in PPS and AST…): 30 mg/kg-day and 10 mg/kg-day
LOEL ([3]; duration: 10 days, oral, gavage, wistar, active + Antiandrogenic + anti-androgenic + ISR significant delay in PPS at 10 mg/kg / Monossori et al. significant delay in PPS and AST…): 10 mg/kg-day and 30 mg/kg-day

Structure (SMILES): COP(=O)(OC)O/C(=C\Cl)c1cc(Cl)c(Cl)cc1Cl [Z-Tetrachlorvinphos]
NOEL ([5]; short-term, duration: 28 days, Wistar, Deaths + Clinical Observation: Soiled perineal region + Body Weight Changes: decrease + Blood Chemistry: AST decrease, gamma-GTP increase, …): < 10 mg/kg-day
NOEL ([5]; short-term, duration: 28 days, Wistar, Deaths + Clinical Observation: Soiled perineal region + Body Weight Changes: decrease + Hematology: RBC decrease, HGB decrease, HCT decrease…): < 10 mg/kg-day
NOEL [3, 19]: 350 mg/kg-day
